Reference: patent publication US9320766B2, “Protective effects and application of a lactobacillus plantarum on the alleviation of lead toxicity” (priority 2012, dated 2016)
Marks after values point to notes of the source that are not given here.

Columns and labels:
[1] = system: lead-exposed mice; assay: Lead levels of lead-exposed mice; type: in vivo; settings: mice fed 1 g/L lead acetate solution; compared with lead model and negative control groups, FIG. 3
Excerpt: 40 healthy male Kunming mice of 20-25 g are randomly divided into four groups: namely negative control group, lead acetate model group, Lactobacillus plantarum CCFM8661 treatment group, and calcium disodium edetate treatment group as positive control. The mice of negative control group are fed with ordinary drinking water and the mice of remaining three groups are fed with 1 g/L lead acetate solution to obtain the lead exposure models. The mice of Lactobacillus plantarum CCFM8661 treatment group are daily fed with the 2.0×10^9 cfu/mL skim milk suspension prepared in Example 3 of Specifications, and the mice of positive control treatment group are intraperitoneally injected with 5 g/L disodium edetate calcium agent every day. The blood of mice is collected at the end of the experiment, and the liver, stomach and kidney are collected after these mice are sacrificed.
40 healthy male Kunming mice of 20-25 g are taken and randomly divided into four groups: namely negative control group, lead acetate model group, Lactobacillus plantarum CCFM8661 treatment group and calcium disodium edetate treatment group as positive control. […] These organs are processed in accordance with above digestion processes, and then the lead levels can be determined with above atomic absorption spectrophotometry of Example 2.

[2] = system: lead-exposed mice; assay: Oxidative damage caused by lead exposure (liver GSH and MDA); type: in vivo; settings: mice fed 1 g/L lead acetate solution, daily treatment
Excerpt: 40 healthy male Kunming mice of 20-25 g are taken and randomly divided into four groups: namely negative control group, lead acetate model group, Lactobacillus plantarum CCFM8661 treatment group and calcium disodium edetate (EDTANa2Ca) treatment group as positive control. The mice of negative control group are fed with ordinary drinking water and the mice of remaining three groups are fed with 1 g/L lead acetate solution to obtain the lead exposure models. The mice of Lactobacillus plantarum CCFM8661 treatment group are daily fed with the 2.0×10^9 cfu/mL skim milk suspension prepared in Example 3 of this Specification, and the mice of positive control treatment group are intraperitoneally injected with 5 g/L disodium edetate calcium agent every day. The blood is taken at the end of the experiment, and the livers are taken out after these mice are sacrificed. These organs are processed with the Ellmam method (Ellmam, G. C. Tissue sulfhydryl groups. Archives of biochemistry and biophysics 82(1): 70-77.) and the malondialdehyde (MDA) kit of Nanjing Jiancheng Bioengineering Institute to determine the glutathione (GSH) and MDA levels.

In the case of O=C([O-])CN(CCN(CC(=O)[O-])CC(=O)[O-])CC(=O)[O-].[Ca+2].[Na+].[Na+] [EDTANa2Ca, calcium disodium edetate], the “lead levels of mice blood, liver, stomach and kidney” value [1] is reported as “higher than that of the negative control group, but lower than that of the lead model control group”, the “GSH (liver)” value [2] is reported as 2.15 ± 0.50^c mg/g protein and the “MDA (liver)” value [2] is reported as 0.15 ± 0.03^c nmol/mg protein.
